Common to all, as to assay: ≥ marks a high value that may be exact or a test limit, other limits are often not marked, values filed in µg/mL are converted to µM
Experiment [1] concerns Bacillus subtilis 168.
Experiment [2] relates to Escherichia coli B.
Experiment [3] deals with Pseudomonas aeruginosa.
Experiment [4] has as its system Staphylococcus aureus.
Experiment [5] relates to Escherichia coli DH5alpha.
The subject of experiment [6] is Klebsiella pneumoniae ATCC 13883.
Experiment [7] deals with Pseudomonas aeruginosa ATCC 27853.
The test system of experiment [8] is Salmonella enterica subsp. enterica serovar Typhimurium ATCC 14028.
Experiment [9] relates to Escherichia coli ATCC 11775.
For experiment [10], the system named is Escherichia coli ATCC 25922.
The test system of experiment [11] is Staphylococcus aureus ATCC 25923.
The test system of experiment [12] is Acinetobacter baumannii ATCC 19606.
Experiment [13] deals with Acinetobacter baumannii.
The test system of experiment [14] is Escherichia coli.
The test system of experiment [15] is Klebsiella pneumoniae.
Experiment [16] deals with Micrococcus luteus.
For experiment [17], the system named is Staphylococcus aureus ATCC 29213.
Experiment [18] relates to Pseudomonas aeruginosa ATCC 10145.
In experiment [19] the test system is Candida albicans ATCC 2002.
Experiment [20] relates to Pseudomonas aeruginosa CMCCB 10104.

In brackets after ≈: the same amount, converted by molar mass. Several values for one entry are separate records, joined by “and”; a condition that tells them apart may be missing. Equal entries are not always repeated.

The term MIC denotes the least concentration at which growth counts as inhibited. For `CC[C@H](C)[C@H](NC(=O)[C@H](CCCCN)NC(=O)CNC(=O)[C@H](CC(C)C)NC(=O)[C@@H](NC(=O)[C@H](CCCCN)NC(=O)[C@H](CCCCN)NC(=O)[C@H](Cc1c[nH]c2ccccc12)NC(=O)[C@@H](NC(=O)[C@@H](N)CC(N)=O)C(C)C)C(C)C)C(=O)N[C@H](C(=O)N[C@@H](CCCCN)C(=O)N[C@H](C(=O)N[C@@H](C)C(=O)N[C@@H](CCCCN)C(N)=O)C(C)C)[C@@H](C)CC` [NVWKKVLGKIIKVAK], the minimum inhibitory concentration (MIC) in experiment [1] came to 1.3 µM (≈ 2.24 µg/mL); in [2], 2.5 µM (≈ 4.31 µg/mL); in [3], 22.7 µM (≈ 39.1 µg/mL); in experiment [4] it was 71.6 µM (≈ 123 µg/mL).

As for `CC[C@H](C)[C@H](NC(=O)[C@H](Cc1cnc[nH]1)NC(=O)[C@H](C)NC(=O)[C@H](CCSC)NC(=O)[C@H](CC(N)=O)NC(=O)[C@H](CCCCN)NC(=O)[C@H](CCCCN)NC(=O)[C@@H](NC(=O)[C@@H](NC(=O)[C@H](CCCCN)NC(=O)[C@H](C)NC(=O)[C@H](Cc1ccccc1)NC(=O)[C@H](CC(C)C)NC(=O)[C@H](CCCCN)NC(=O)[C@@H]1CCCN1C(=O)[C@H](CC(C)C)NC(=O)[C@@H](N)Cc1ccccc1)[C@@H](C)CC)[C@@H](C)O)C(=O)N[C@@H](CCCN=C(N)N)C(=O)N[C@@H](CS)C(=O)O` [FLPKLFAKITKKNMAHIRC], the minimum inhibitory concentration (MIC) was 17 µM and 12 µM in experiment [5]; 12 µM and 10 µM in [6]; 15 µM (≈ 33.9 µg/mL) in experiment [7]; 15 µM (≈ 33.9 µg/mL) in experiment [8].

Turning to `CC[C@H](C)[C@H](NC(=O)[C@H](Cc1cnc[nH]1)NC(=O)[C@H](CCCCN)NC(=O)[C@H](Cc1c[nH]c2ccccc12)NC(=O)[C@H](CC(C)C)NC(=O)[C@H](CO)NC(=O)[C@H](CCSC)NC(=O)[C@H](Cc1c[nH]c2ccccc12)NC(=O)[C@H](CCCCN)NC(=O)CN)C(=O)N[C@@H](CC(C)C)C(=O)N[C@@H](CCCCN)C(N)=O` [GKWMSLWKHILK], the MIC in experiment [1] worked out at 1.4 µM (≈ 2.14 µg/mL); in experiment [2], 8 µM (≈ 12.2 µg/mL); in [3], 32.5 µM (≈ 49.6 µg/mL); in experiment [4], 27 µM (≈ 41.2 µg/mL).

In the case of `NCCCC[C@H](NC(=O)[C@H](Cc1c[nH]c2ccccc12)NC(=O)[C@H](CCC(N)=O)NC(=O)[C@H](Cc1c[nH]c2ccccc12)NC(=O)[C@H](CCCCN)NC(=O)[C@H](Cc1c[nH]c2ccccc12)NC(=O)[C@H](CCC(N)=O)NC(=O)[C@H](Cc1c[nH]c2ccccc12)NC(=O)[C@@H](N)CCCCN)C(=O)O` [KWQWKWQWK], the minimum inhibitory concentration (MIC) is at least 36 µM in experiment [9], 36 µM (≈ 50.5 µg/mL) in experiment [10], 143 µM (≈ 201 µg/mL) in experiment [7] and 143 µM (≈ 201 µg/mL) in [11].

For `CC[C@H](C)[C@H](NC(=O)[C@@H](N)CCCCN)C(=O)NCC(=O)N[C@@H](CCCCN)C(=O)N[C@@H](C)C(=O)N[C@@H](CC(C)C)C(=O)NCC(=O)N[C@@H](CCCCN)C(=O)N[C@@H](C)C(=O)N[C@@H](CC(C)C)C(=O)N[C@@H](CCCCN)C(=O)N[C@@H](C)C(=O)N[C@@H](CC(C)C)C(=O)NCC(=O)N[C@@H](CCCCN)C(=O)N[C@@H](C)C(=O)N[C@@H](CC(C)C)C(=O)NCC(=O)N[C@@H](CCCCN)C(=O)N[C@@H](C)C(N)=O` [KIGKALGKALKALGKALGKA], the MIC is 2 µM (≈ 3.87 µg/mL) in experiment [12]; at least 45.3 µM in experiment [13]; 8 µM (≈ 15.5 µg/mL) in experiment [10]; 45.3 µM (≈ 87.6 µg/mL) in [14]; 16 µM (≈ 31 µg/mL) in experiment [6]; 16 µM (≈ 31 µg/mL) in experiment [15]. Besides, the minimum inhibitory concentration (MIC) in experiment [7] is 8 µM (≈ 15.5 µg/mL); in experiment [3] it was 22.6 µM (≈ 43.8 µg/mL); in experiment [11] it was 16 µM and 22.6 µM; in experiment [4] it was 16 µM (≈ 31 µg/mL).

Consider `CC(C)C[C@H](NC(=O)CNC(=O)[C@H](CC(C)C)NC(=O)CNC(=O)[C@H](CC(N)=O)NC(=O)[C@H](CC(C)C)NC(=O)[C@H](CC(C)C)NC(=O)[C@H](CC(N)=O)NC(=O)CNC(=O)[C@H](CC(C)C)NC(=O)[C@@H](NC(=O)CNC(=O)[C@H](CC(C)C)NC(=O)[C@H](CC(C)C)NC(=O)CN)[C@@H](C)O)C(N)=O` [GLLGTLGNLLNGLGL], for which, in [16], the MIC was at least 35.1 µM.

Take `CC[C@H](C)[C@H](NC(=O)[C@H](C)NC(=O)[C@@H](N)C(C)C)C(=O)N[C@@H](C)C(=O)N[C@@H](CC(C)C)C(=O)N[C@@H](CCCCN)C(=O)N[C@@H](C)C(=O)N[C@@H](C)C(=O)N[C@@H](Cc1cnc[nH]1)C(=O)N[C@@H](Cc1ccc(O)cc1)C(=O)N[C@@H](C)C(=O)N[C@H](C(=O)N[C@@H](Cc1cnc[nH]1)C(=O)N[C@@H](CCCCN)C(=O)N[C@@H](CCC(=O)O)C(=O)O)[C@@H](C)O` [VAIALKAAHYATHKE]: the MIC in [6] is at least 78.9 µM; in experiment [17] it was 39.4 µM (≈ 64 µg/mL).

In experiment [18], `C[C@H](NC(=O)[C@H](C)NC(=O)[C@H](CCCCN)NC(=O)[C@H](CCCCN)NC(=O)[C@H](C)NC(=O)[C@H](C)NC(=O)[C@H](CCCCN)NC(=O)[C@H](CCCCN)NC(=O)[C@H](C)NC(=O)[C@H](Cc1ccccc1)NC(=O)[C@H](CCCCN)NC(=O)[C@H](CCCCN)NC(=O)[C@H](C)NC(=O)[C@H](Cc1ccccc1)NC(=O)[C@@H](N)CCCCN)C(=O)N[C@@H](CCCCN)C(=O)O` [KFAKKFAKKAAKKAAK] returned an MIC of at least 142 µM.

As for `CC[C@H](C)[C@H](NC(=O)[C@H](CC(C)C)NC(=O)[C@H](Cc1cnc[nH]1)NC(=O)CNC(=O)[C@H](CC(C)C)NC(=O)[C@@H](NC(=O)[C@H](CCCCN)NC(=O)[C@H](CO)NC(=O)[C@H](Cc1c[nH]c2ccccc12)NC(=O)[C@H](CCSC)NC(=O)CN)[C@@H](C)CC)C(=O)N[C@@H](CCCCN)C(N)=O` [GMWSKILGHLIK], the MIC stood at 1.3 µM (≈ 1.8 µg/mL) in [1], 7.2 µM (≈ 9.95 µg/mL) in experiment [2], 65 µM (≈ 89.8 µg/mL) in experiment [3] and 15.8 µM (≈ 21.8 µg/mL) in experiment [4].

Turning to `CC[C@H](C)[C@H](NC(=O)CNC(=O)[C@H](CCCCN)NC(=O)CNC(=O)[C@H](CO)NC(=O)[C@H](Cc1ccccc1)NC(=O)[C@H](CCCCN)NC(=O)[C@H](CO)NC(=O)[C@H](Cc1ccccc1)NC(=O)[C@H](CC(C)C)NC(=O)CN)C(=O)N[C@@H](CCCCN)C(=O)N[C@@H](CC(N)=O)C(=O)N[C@@H](Cc1ccccc1)C(=O)N[C@@H](CC(C)C)C(=O)N[C@H](C(=O)N[C@@H](CCCCN)C(=O)NCC(=O)N[C@H](C(=O)N[C@@H](CCCCN)C(=O)N[C@@H](Cc1cnc[nH]1)C(=O)N[C@H](C(=O)NCC(=O)N[C@@H](CCCCN)C(=O)N[C@@H](CCC(=O)O)C(=O)N[C@H](C(=O)NCC(=O)N[C@@H](CCSC)C(=O)N[C@@H](CC(=O)O)C(=O)N[C@H](C(=O)N[C@H](C(=O)N[C@@H](CCCN=C(N)N)C(=O)N[C@H](C(=O)NCC(=O)N[C@H](C(=O)N[C@@H](CC(=O)O)C(=O)N[C@H](C(=O)N[C@@H](C)C(=O)NCC(=O)N[C@H]1CSSC[C@@H](C(=O)O)NC(=O)[C@H](CCC(=O)O)NC(=O)CNC(=O)[C@H](CCCCN)NC(=O)[C@H]([C@@H](C)CC)NC(=O)[C@H](CCCCN)NC1=O)C(C)C)[C@@H](C)CC)[C@@H](C)O)[C@@H](C)CC)C(C)C)C(C)C)[C@@H](C)CC)C(C)C)[C@@H](C)CC` [GLFSKFSGKGIKNFLIKGVKHIGKEVGMDVIRTGIDVAGCKIKGEC], the MIC in experiment [19] came to 0.266 µM (≈ 1.3 µg/mL); in [10] it was 0.512 µM (≈ 2.5 µg/mL); in experiment [20], 0.512 µM (≈ 2.5 µg/mL); in experiment [11], 0.266 µM (≈ 1.3 µg/mL).

Take `CC[C@H](C)[C@H](NC(=O)[C@H](C)NC(=O)[C@H](CC(C)C)NC(=O)[C@H](CCC(=O)O)NC(=O)[C@H](CCCCN)NC(=O)[C@H](Cc1ccccc1)NC(=O)[C@@H](NC(=O)[C@H](CO)NC(=O)[C@H](CC(C)C)NC(=O)[C@H](Cc1ccccc1)NC(=O)[C@@H](N)CO)[C@@H](C)O)C(=O)N[C@@H](CC(N)=O)C(=O)N[C@@H](C)C(=O)N[C@@H](C)C(=O)N[C@@H](CCCCN)C(=O)N[C@@H](CC(N)=O)C(=O)N[C@@H](C)C(=O)NCC(=O)N[C@@H](CCC(N)=O)C(=O)N[C@@H](CO)C(=O)N[C@H](C(=O)N[C@@H](CC(C)C)C(=O)N[C@@H](Cc1cnc[nH]1)C(=O)N[C@H](C(=O)N[C@@H](CC(C)C)C(=O)N[C@@H](CO)C(=O)N[C@H]1CSSC[C@@H](C(=O)O)NC(=O)[C@H]([C@@H](C)O)NC(=O)[C@H](CCCCN)NC(=O)[C@H](CC(=O)O)NC(=O)[C@H](CC(C)C)NC(=O)[C@H](CCCCN)NC1=O)[C@@H](C)O)[C@@H](C)CC` [SFLSTFKELAINAAKNAGQSILHTLSCKLDKTC]: the MIC in [19] came to 1.44 µM (≈ 5.1 µg/mL); in experiment [10], 5.74 µM (≈ 20.4 µg/mL); in experiment [20] it was 5.74 µM (≈ 20.4 µg/mL); in experiment [11], 2.87 µM (≈ 10.2 µg/mL).

The values are drawn from DBAASP.
